Measurements published in patent US10898592B2, “Compositions and methods for reducing the risk of post-imaging pancreatitis” (University Of Pittsburgh—Of The Commonwealth System Of …, priority 2015, dated 2021).
“Also recorded” adds a separate entry of the source. Values belong to the compound of their own block, whether it stands above or below them.

What was measured:
NF-κB = assay: NF-κB-luciferase activity assay, AR42J cells; assay type: cell-based; details: for effect on RC-induced NF-κB-luciferase levels: U73122 5 μM, 2-APB 100 μM, BAPTA 64 μM
Experimental: NF-κB-luciferase activity assay. AR42J cells were differentiated towards an acinar phenotype by administering dexamethasone (100 nM) for 48-72 hr^17. AR42J cells were infected with Ad-NF-κB luciferase 16 h prior to stimulation using a previously described method^12. Following a wash with DMEM/F12 medium, acinar cells were evenly distributed in a 48-well plate and incubated for 30 min at 37° C. They were incubated with RC at varying concentrations and times. NF-κB-luciferase was measured using a commercially available luciferase assay (Promega, Madison, Wis.). Briefly, cells were spun at 1,000 rpm for 5 min, washed with PBS, and lysed using reporter lysis 5× buffer (Promega, catalog no. E397A). Samples were vortexed and spun at 12,000×g for 2 min. The supernatant was plated, and luminescence was measured using a Synergy H1 plate reader (BioTek, Winooski, Vt.) and normalized to total […].

NRK-52E renal cell line = details: long incubation (4 hr); cited from earlier work
[1] = tested on: calcineurin (NFAT-luciferase); assay: NFAT-luciferase activity assay, AR42J cells; assay type: cell-based; details: for effect on RC (6%)-induced NFAT-luciferase activity: pretreatment, FK506 24 μM, CsA 16 μM, U73122 5 μM, 2-APB 100 μM, BAPTA 64 μM
Experimental: (§1) NFAT-luciferase activity assay. Acinar cells were infected with Ad-NFAT-luciferase following a previously described procedure^10,15,16. The construct includes a luciferase gene placed downstream of an IL-4 promoter which contains nine tandem NFAT binding sites^10. Acinar cells were incubated with the NFAT-driven luciferase adenovirus for 1.5 hr prior to stimulation. All of the stated inhibitors were added for 30 min prior to stimulation with RC. NFAT-luciferase was measured using the luciferase assay system. Briefly, cells were spun at 1,000 rpm for 5 min, washed with PBS, and lysed using reporter lysis 5× buffer (Promega #E397A, Madison, Wis.). Samples were vortexed and spun at 12,000 g for 2 min. Supernatant was plated, and luminescence was measured using a Synergy H1 plate reader (BioTek, Winooski, Vt.) and normalized to total protein.

primary acinar cells = assay: Cell necrosis assay (propidium iodide uptake), primary acinar cells; assay type: cell-based, mouse; details: for effect on RC (12%)-induced acinar cell injury (PI uptake): 6 hr incubation, U73122 5 μM, 2-APB 100 μM, BAPTA 64 μM, IKK-2 20 μM, FK506 24 μM, CsA 16 μM
Experimental: Cell necrosis assay. Acinar cells were incubated in a 48-well plate with 50 μg/ml of propidium iodide (PI) for 30 min prior to addition of RC. Fluorescence was measured at 536 nm excitation and 617 nm emission wavelengths over time a time course of up to 6 hr. Fluorescence was measured after cell lysis with 0.5% Triton-X 100 was used to normalize the results relative to total DNA.

AR42J cells = assay: Ca^2+ signals (Fluo-4AM) in AR42J cells; assay type: cell-based; details: U73122 5 μM; 2-APB 100 μM
[2] = tested on: calcineurin (NFAT-luciferase); assay: NFAT-luciferase activity assay (calcineurin activation), mouse primary acinar cells; assay type: cell-based; details: 2-APB 100 μM, 30 min pre-treatment; RC 9%
Experimental: as §1

[3] = high-affinity Ca^2+-sensing dye (Invitrogen); cited from earlier work
pancreas = assay: Intra-ductal RC infusion (PEP model) in mice: histological severity, serum amylase; assay type: in vivo, mouse
Text: Intra-ductal RC infusion in mice. The procedure for retrograde infusion into the CBD and pancreatic duct has been described before^14. Briefly, Swiss Webster mice were anesthetized with isoflurane. A midline incision was made to reveal the abdominal cavity. The duodenum was flipped to reveal its distal side and held in place by ligatures. […] needle was inserted through the anti-mesenteric aspect of the duodenum to cannulate the CBD. A small bull dog clamp was applied to the distal CBD (near the duodenum) to prevent back flow of the infusate into the duodenal lumen and to hold the cannula in place. A larger bull dog clamp was applied to the proximal CBD (near the liver) to prevent infusion into the liver and thus to direct flow to the pancreatic duct. Total volumes of 50-100 μl of iohexol, iopamidol, or normal saline (NS) were infused at 10-20 μl per min for 5 min using a P33 perfusion pump (Harvard Apparatus, Holliston, Mass.). Upon completion of the infusion, the bull dog clamps were released. The exterior abdominal wound was closed using 7 mm wound clips, and a single injection of buprenorphine (0.075 mg/kg) was given immediately after the surgery. Mice recovered on a heating pad for 30 min after the procedure. They were given free access to food and water after the surgery. Pancreas tissue preparation, histological grading, and serum amylase. The pancreas, duodenum, and spleen were fixed at room temperature for 24 hr in 4% paraformaldehyde. Paraffin-embedded sections were stained with hematoxylin an eosin (HE) and graded using a 20× objective over 10 separate fields in a blinded fashion. Pancreas tissue was graded for edema, inflammatory infiltrate, and necrosis as described by Wildi et al.^67. Whole blood samples were centrifuged at 1500×g for 5 min at 4° C. Serum amylase was measured using a Phadebas kit (Amersham Pharmacia, Rochester N.Y.) as previously described^68.

pancreatic NF-κB = assay: Imaging pancreatic NF-κB bioluminescence in vivo (AAV6-NF-κB-luciferase); parameters: species or system mouse; details: RC-infused mice, 4 hr after surgery
Experimental: Imaging pancreatic NF-κB bioluminescence in vivo. An AAV6-NF-κB-luciferase reporter was constructed, expanded in HEK293 cells, and purified as previously described^18-20,39. A volume of 100 μl of virus (10^12 GCP/ml) was infused into the pancreaticobiliary duct at a rate of 10 μl/min using the same technique of RC infusion described above and recently published^21,39. After a 5-week recovery from the surgery, mice underwent PEP induction with or without FK506 treatment. At varying time points after the surgery, ranging from 2 to 36 hr, bioluminescence signals were obtained by first giving a subcutaneous injection of luciferin (150 μg/g body weight) in the scruff of the neck 15 min before the start of imaging. The mice were briefly anesthetized with isoflurane and placed in the supine position in a bioluminescent imaging chamber (IVIS spectrum imager; Perkin Elmer, Waltham, Mass.) for 3-10 min. Average pixel intensity was measured from a pancreatic region of interest (in the upper abdomen). Raw time points from each mouse were normalized to its individual baseline intensity at time zero.

[4] = tested on: IL-6, GADD45B, IL-1β gene expression; assay: Real-time PCR of pancreatic head (IL-6, GADD45B, IL-1β); assay type: in vivo, mouse; details: RC exposure
Experimental: RNA extraction from whole pancreas and real-time PCR. Total RNA from the pancreatic head was obtained by homogenizing 40 mg of tissue in 2 ml of TRIzol reagent (Life Technologies; Grand Island N.Y.) at 4° C. and immediately flash frozen in liquid nitrogen. Samples were thawed on ice and centrifuged at 12,000×g for 10 min at 4° C. The supernatant was diluted with 200 μl of chloroform and centrifuged at 12,000×g for 15 min at 4° C. The upper aqueous phase was treated with 0.5 ml of isopropanol and centrifuged at 10,000×g for 10 min at 4° C. The pellet was resuspended with 150 μl of 75% ethanol and centrifuged at 7500×g for 5 min at 4° C. The pellet was air-dried and dissolved in 100 μl of nuclease-free water. Total RNA samples were used to generate cDNA using the iScript Advanced cDNA synthesis Kit (Bio Rad; Hercules, Calif.).
Quantitative real-time PCR (rtPCR) was performed to determine the relative expression of the cytokines IL-6 and IL-1β as well as the cell growth arrest and DNA-damage inducible gene GADD45B. The primer pairs for each as well as a GAPDH control were obtained as part of the PrimePCR-PreAMP SYBR Green Assay (Bio Rad; unique assay ID #qMmuCEP0054186, qMmuCID0005641, qMmuCEP0039581). rtPCR reactions were carried out in 20 μl volume reactions using the SsoAdvanced Universal Supermix SYBR Green system (Bio Rad). The reactions contained 1× SsoAdvanced Universal SYBR Green Supermix, 300 nM forward Primer, 300 nM reverse primer and 100 ng cDNA. rtPCR conditions were 95° C. for 10 sec and 60° C. for 30 sec for 35 cycles on a Bio Rad CFX96 Touch thermocycler (Bio Rad). Results for the expression of mRNA were normalized to expression of 18S rRNA and are represented relative to expression levels for each of the control groups.

[5] = tested on: mouse pancreatic acinar cells; assay: Ca^2+ signals (Fluo-4AM) in mouse pancreatic acinar cells; assay type: cell-based; details: RC 25% and 33%
Experimental: Detection and analysis of cellular Ca^2+ signals from mouse and human acini. Acinar cells were loaded at room temperature with the high-affinity Ca^2+-sensing dye Fluo-4AM (Kd=300 nM; Invitrogen). Acinar cells were plated on acid-washed glass coverslips and then mounted on a perifusion chamber. Thereupon, they were stimulated at room temperature with varying concentrations of RC (17-50%) diluted in HEPES buffer. Carbachol (1 mM) was given at the end of each experiment to confirm that the cells were intact and could mobilize intracellular Ca^2+ stores. A Zeiss LSM710 laser scanning confocal microscope was used with a 20×, 1.4 numerical aperture objective. The dye was excited at 488 nm wavelength, and emission signals of >515 nm were collected every 2 sec. Fluorescence from individual acinar cells was recorded. Analysis of recordings was performed using ImageJ software (NIH, Bethesda, Md.), and mean fluorescence over time in each region was graphed.
Preparation of mouse pancreatic acini for Ca^2+ imaging. Groups of pancreatic acinar cells were isolated as previously described^26,69, with minor modifications. […]

pancreatic acinar cells = assay: ATP level measurements in pancreatic acinar cells; assay type: cell-based, mouse; details: RC, concentration dependent
Experimental: ATP level measurements. Following isolation, pancreatic acinar cells were cultured in DMEM/F12 Medium (0.5 ml/well of a 48-well plate) at 37° C. water bath and treated with RC±FK506. Cells were collected at indicated time points and lysed in 100 μl lysis buffer (100 mM Tris pH 7.75, 4 mM EDTA). ATP levels were measured from 20 μl aliquots of acinar cell lysates using the ENLITEN luciferase/luciferin reagent (Promega catalog no. FF2021).

SMILES: OC[C@@H](O)[C@@H](O)[C@H](O)[C@H](O)CO [mannitol]
- NF-κB activation under hyperosmolar control (NF-κB; mannitol at concentrations equimolar to RC): failed to cause an increase

SMILES: O=C(NCC(O)CO)c1c(I)c(C(=O)NCC(O)CO)c(I)c(N(CCO)C(=O)CO)c1I (centres unmarked) [ioversol]
- baseline cytosolic Ca^2+ levels (NRK-52E renal cell line): caused a slow, globalized increase in baseline cytosolic Ca^2+ levels

SMILES: COc1ccc2c(c1)CC[C@@H]1[C@@H]2CC[C@]2(C)[C@@H](NCCCCCCN3C(=O)C=CC3=O)CC[C@@H]12 [U73122]
- effect on RC-induced NF-κB-luciferase levels (NF-κB): reduced
- effect on RC (6%)-induced NFAT-luciferase activity [1]: prevented
- effect on RC (12%)-induced acinar cell injury (PI uptake) (primary acinar cells): prevented
- effect on RC (25%)-induced Ca^2+ signals (AR42J cells): prevented

SMILES: NCCOB(c1ccccc1)c1ccccc1 [2-APB]
- effect on RC-induced NF-κB-luciferase levels (NF-κB): reduced
- effect on RC (6%)-induced NFAT-luciferase activity [1]: prevented
- effect on RC (12%)-induced acinar cell injury (PI uptake) (primary acinar cells): prevented
- effect on RC (25%)-induced Ca^2+ signals (AR42J cells): prevented
- reduction of RC-induced NFAT-luciferase rise [2]: 47%

SMILES: CC(=O)OCOC(=O)CN(CC(=O)OCOC(C)=O)c1ccc(C)cc1OCCOc1cc(-c2c3cc(F)c(=O)cc-3oc3cc(OCOC(C)=O)c(F)cc23)ccc1N(CC(=O)OCOC(C)=O)CC(=O)OCOC(C)=O [Fluo-4AM]
- Kd [3]: 300 nM

SMILES: C[C@H](O)C(=O)Nc1c(I)c(C(=O)NC(CO)CO)c(I)c(C(=O)NC(CO)CO)c1I [iopamidol]
- induction of pancreatitis by intraductal infusion (histological severity, serum amylase, serum IL-6) (pancreas; iopamidol (Isovue 300) compared with iohexol, 24 hr): similar; also recorded: induces pancreatitis
- NF-κB-luciferase on exposure to radiocontrast (NF-κB; AR42J cells, 6 hr): induced NF-κB activation in a concentration-dependent manner
- calcineurin/NFAT activation on exposure to radiocontrast ([1]; AR42J cells): induced NFAT activation in a concentration-dependent manner

SMILES: CCCCCCCCCCC[C@@H](C[C@@H]1OC(=O)[C@H]1CCCCCC)OC(=O)[C@H](CC(C)C)NC=O [Orlistat]
- effect on activation of NF-κB with RC (NF-κB; Orlistat pretreatment (50-100 μM), RC 16%): did not significantly reduce

- severity of pancreatitis at pH 6 compared to pH 7 (pancreas; RC buffered with 10 mM HEPES, pH clamped at 6): no increased severity of pancreatitis
- increase in histological severity above the intra-ductal NS sham control (pancreas; intraductal RC at doubled rate and volume, pancreatic head 24 hr after procedure): 59%
- serum amylase increase (pancreas; intraductal RC, 6 hr post-procedure): at least 50%
- peak in pancreatic NF-κB luciferase compared to NS sham (pancreatic NF-κB): 13 fold
- expression of GADD45B [4]: upregulated
- expression of IL-1β [4]: upregulated
- expression of IL-6 [4]: upregulated
- ATP levels (pancreatic acinar cells): depletion of ATP levels
SMILES: CC(=O)N(CC(O)CO)c1c(I)c(C(=O)NCC(O)CO)c(I)c(C(=O)NCC(O)CO)c1I (centres unmarked) [RC, iohexol]
- amplitude of Ca^2+ signal above baseline [5]: 400%
- propidium iodide (PI) uptake (primary acinar cells; RC exposure for 6 hr): concentration-dependent increase
